According to patent US20180015072A1, “Tryptophan is a pro-drug for infectious diseases and cancers” (priority 2016, published 2018):

What was measured:
[1] = system: Venezuelan equine encephalitis viruses; assay type: cell-based
chikungunya viruses = assay type: cell-based
Herpes simplex virus 1 = assay type: cell-based
[2] = system: pancreatic cancer Mia PaCa2 cell; assay type: cell-based
rift valley fever virus = assay type: cell-based
dengue viruses = assay type: cell-based
influenza A H1N1 viruses = assay type: cell-based
poliovirus = assay type: cell-based
[3] = system: nun small cell lung cancer mice model; test: nun small cell lung cancer mice model; assay type: in vivo; conditions: 80 mg/kg/day, China Tongi medical university
vaccinia virus = assay type: cell-based
tacaribe virus = assay type: cell-based
[4] = system: respiratory syncytial viruses; assay type: cell-based
[5] = system: hand foot mouth disease mice model; test: hand foot mouth disease mice model; assay type: in vivo; conditions: 320 mg/kg/day, China food and drug inspection Ins.
hepatitis B = assay type: cell-based
yellow fever virus = assay type: cell-based
human cytomegalovirus = assay type: cell-based
MERS coronavirus = assay type: cell-based
hepatitis C virus = assay type: cell-based
[6] = system: human primary white cells

`OC[C@H]1O[C@@H](Oc2c[nH]c3ccccc23)[C@H](O)[C@@H](O)[C@@H]1O` [Indican] was tested, and the “inhibition of Venezuelan equine encephalitis viruses” value [1] was “inhibits”, the “inhibition of chikungunya viruses” value (chikungunya viruses) was “inhibits” and the “inhibition of Herpes simplex virus 1” value (Herpes simplex virus 1) was “inhibit”. For the same molecule, the “inhibition of Mia PaCa2 cell growth” value [2] was “inhibit”, the “inhibition of rift valley fever virus” value (rift valley fever virus) was “inhibit” and the “inhibition of dengue viruses” value (dengue viruses) was “inhibits”. The “inhibition of influenza A H1N1 viruses” value (influenza A H1N1 viruses) was “inhibits”, the inhibition of poliovirus (poliovirus) was “inhibit” and the “prevention and early stage treatment function in lung cancer mice model” value [3] was “significant prevention and early stage treatment function”. For the same molecule, the “inhibition of vaccinia virus” value (vaccinia virus) was “inhibit”, the “inhibition of tacaribe virus” value (tacaribe virus) was “inhibit” and the “inhibition of respiratory syncytial viruses” value [4] was “inhibits”. For the same molecule, the “function in hand foot mouth disease mice model” value [5] was “significant function”, the “function against hepatitis B” value (hepatitis B) was “does not show function” and the “inhibition of yellow fever virus” value (yellow fever virus) was “inhibits”. The “inhibition of human cytomegalovirus” value (human cytomegalovirus) was “inhibit”, the “inhibition of MERS coronavirus” value (MERS coronavirus) was “inhibits” and the “inhibition of hepatitis C virus” value (hepatitis C virus) was “inhibits”.
With `N[C@@H](Cc1c[nH]c2ccccc12)C(=O)O` [Tryptophan] the “safety for human primary white cells” value [6] was “safe”, the “inhibition of Herpes simplex virus 1” value (Herpes simplex virus 1) was “inhibit” and the “inhibition of Mia PaCa2 cell growth” value [2] was “inhibit”. For the same molecule, the “inhibition of rift valley fever virus” value (rift valley fever virus) was “inhibit”, the inhibition of poliovirus (poliovirus) was “inhibit” and the “prevention and early stage treatment function in lung cancer mice model” value [3] was “significant prevention and early stage treatment function”. For the same molecule, the “inhibition of vaccinia virus” value (vaccinia virus) was “inhibit”, the “inhibition of tacaribe virus” value (tacaribe virus) was “inhibit” and the “function in hand foot mouth disease mice model” value [5] was “significant function”. For the same molecule, the “inhibition of human cytomegalovirus” value (human cytomegalovirus) was “inhibit”.
